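Protocol summary: plate cells (96-well), add compound at 5 concentrations, incubate 48 h, interpolate endpoints linearly. TGI marks complete inhibition of growth.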
What was measured:
Assay in all cases: inhibition of tumour cell growth, NCI panel, 48 h
OVCAR-5 ovarian = tested on: OVCAR-5 ovarian
TK-10 renal = tested on: TK-10 renal
A549 NSCLC = tested on: A549 NSCLC
SNB-19 CNS = tested on: SNB-19 CNS
SW-620 colon = tested on: SW-620 colon
SF-539 CNS = tested on: SF-539 CNS
RPMI-8226 leukemia = tested on: RPMI-8226 leukemia
EKVX NSCLC = tested on: EKVX NSCLC
SK-MEL-2 melanoma = tested on: SK-MEL-2 melanoma
IGROV1 ovarian = tested on: IGROV1 ovarian
SF-295 CNS = tested on: SF-295 CNS
SN12C renal = tested on: SN12C renal
KM20L2 colon = tested on: KM20L2 colon
XF 498 CNS = tested on: XF 498 CNS
ACHN renal = tested on: ACHN renal
MALME-3M melanoma = tested on: MALME-3M melanoma
MOLT-4 leukemia = tested on: MOLT-4 leukemia
CCRF-CEM leukemia = tested on: CCRF-CEM leukemia
UACC-62 melanoma = tested on: UACC-62 melanoma
HOP-18 NSCLC = tested on: HOP-18 NSCLC
CAKI-1 renal = tested on: CAKI-1 renal
HCC-2998 colon = tested on: HCC-2998 colon
SR leukemia = tested on: SR leukemia
SK-MEL-5 melanoma = tested on: SK-MEL-5 melanoma
OVCAR-4 ovarian = tested on: OVCAR-4 ovarian
OVCAR-8 ovarian = tested on: OVCAR-8 ovarian
SK-MEL-28 melanoma = tested on: SK-MEL-28 melanoma
SNB-78 CNS = tested on: SNB-78 CNS
UO-31 renal = tested on: UO-31 renal
HL-60(TB) leukemia = tested on: HL-60(TB) leukemia
K-562 leukemia = tested on: K-562 leukemia
M14 melanoma = tested on: M14 melanoma
LOX IMVI melanoma = tested on: LOX IMVI melanoma
SNB-75 CNS = tested on: SNB-75 CNS
HOP-92 NSCLC = tested on: HOP-92 NSCLC
DMS 114 small cell lung = tested on: DMS 114 small cell lung
RXF 393 renal = tested on: RXF 393 renal
A498 renal = tested on: A498 renal
COLO 205 colon = tested on: COLO 205 colon
HOP-62 NSCLC = tested on: HOP-62 NSCLC
NCI-H522 lung = tested on: NCI-H522 lung
KM12 colon = tested on: KM12 colon
DMS 273 small cell lung = tested on: DMS 273 small cell lung
DLD-1 colon = tested on: DLD-1 colon
HT29 colon = tested on: HT29 colon
SF-268 CNS = tested on: SF-268 CNS
OVCAR-3 ovarian = tested on: OVCAR-3 ovarian
786-0 renal = tested on: 786-0 renal
HCT-15 colon = tested on: HCT-15 colon
NCI-H23 lung = tested on: NCI-H23 lung
U251 CNS = tested on: U251 CNS
M19-MEL melanoma = tested on: M19-MEL melanoma
HCT-116 colon = tested on: HCT-116 colon
LXFL 529 NSCLC = tested on: LXFL 529 NSCLC
UACC-257 melanoma = tested on: UACC-257 melanoma
NCI-H460 lung = tested on: NCI-H460 lung
SK-OV-3 ovarian = tested on: SK-OV-3 ovarian
NCI-H226 lung = tested on: NCI-H226 lung
RXF-631 renal = tested on: RXF-631 renal

CCc1cccc(C)c1NC(=O)CCc1nnc(SC)o1
TGI (OVCAR-5 ovarian): > 100 µM | TGI (TK-10 renal): > 100 µM | TGI (A549 NSCLC): > 100 µM | TGI (SNB-19 CNS): > 100 µM | TGI (SW-620 colon): > 100 µM | TGI (SF-539 CNS): > 100 µM | TGI (RPMI-8226 leukemia): > 100 µM | TGI (EKVX NSCLC): > 100 µM | TGI (SK-MEL-2 melanoma): > 100 µM | TGI (IGROV1 ovarian): > 100 µM | TGI (SF-295 CNS): > 100 µM | TGI (SN12C renal): > 100 µM | TGI (KM20L2 colon): > 100 µM | TGI (XF 498 CNS): > 100 µM | TGI (ACHN renal): > 100 µM | TGI (MALME-3M melanoma): > 100 µM | TGI (MOLT-4 leukemia): > 100 µM | TGI (CCRF-CEM leukemia): > 100 µM | TGI (UACC-62 melanoma): > 100 µM | TGI (HOP-18 NSCLC): > 100 µM | TGI (CAKI-1 renal): > 100 µM | TGI (HCC-2998 colon): > 100 µM | TGI (SR leukemia): > 100 µM | TGI (SK-MEL-5 melanoma): > 100 µM | TGI (OVCAR-4 ovarian): > 100 µM | TGI (OVCAR-8 ovarian): > 100 µM | TGI (SK-MEL-28 melanoma): > 100 µM | TGI (SNB-78 CNS): > 100 µM | TGI (UO-31 renal): > 100 µM | TGI (HL-60(TB) leukemia): > 100 µM | TGI (K-562 leukemia): > 100 µM | TGI (M14 melanoma): > 100 µM | TGI (LOX IMVI melanoma): > 100 µM | TGI (SNB-75 CNS): > 100 µM | TGI (HOP-92 NSCLC): > 100 µM | TGI (DMS 114 small cell lung): > 100 µM | TGI (RXF 393 renal): > 100 µM | TGI (A498 renal): > 100 µM | TGI (COLO 205 colon): > 100 µM | TGI (HOP-62 NSCLC): > 100 µM | TGI (NCI-H522 lung): > 100 µM | TGI (KM12 colon): > 100 µM | TGI (DMS 273 small cell lung): > 100 µM | TGI (DLD-1 colon): > 100 µM | TGI (HT29 colon): > 100 µM | TGI (SF-268 CNS): > 100 µM | TGI (OVCAR-3 ovarian): > 100 µM | TGI (786-0 renal): > 100 µM | TGI (HCT-15 colon): > 100 µM | TGI (NCI-H23 lung): > 100 µM | TGI (U251 CNS): > 100 µM | TGI (M19-MEL melanoma): > 100 µM | TGI (HCT-116 colon): > 100 µM | TGI (LXFL 529 NSCLC): > 100 µM | TGI (UACC-257 melanoma): > 100 µM | TGI (NCI-H460 lung): > 100 µM | TGI (SK-OV-3 ovarian): > 100 µM

Cc1cc(C)nc(NS(=O)(=O)c2ccc(Nc3c4ccccc4nc4c(C(=O)N5CCN(CCO)CC5)ccc(Cl)c34)cc2)n1
TGI (OVCAR-5 ovarian): > 100 µM | TGI (TK-10 renal): > 100 µM | TGI (A549 NSCLC): > 100 µM | TGI (SNB-19 CNS): > 100 µM | TGI (SF-539 CNS): > 100 µM | TGI (RPMI-8226 leukemia): > 100 µM | TGI (SK-MEL-2 melanoma): > 100 µM | TGI (IGROV1 ovarian): > 100 µM | TGI (SF-295 CNS): > 100 µM | TGI (SN12C renal): > 100 µM | TGI (KM20L2 colon): > 100 µM | TGI (MALME-3M melanoma): > 100 µM | TGI (MOLT-4 leukemia): > 100 µM | TGI (CCRF-CEM leukemia): > 100 µM | TGI (UACC-62 melanoma): > 100 µM | TGI (CAKI-1 renal): > 100 µM | TGI (HCC-2998 colon): > 100 µM | TGI (SK-MEL-5 melanoma): > 100 µM | TGI (NCI-H226 lung): > 100 µM | TGI (OVCAR-4 ovarian): > 100 µM | TGI (OVCAR-8 ovarian): > 100 µM | TGI (SK-MEL-28 melanoma): > 100 µM | TGI (SNB-78 CNS): > 100 µM | TGI (UO-31 renal): > 100 µM | TGI (HL-60(TB) leukemia): > 100 µM | TGI (K-562 leukemia): > 100 µM | TGI (M14 melanoma): > 100 µM | TGI (SNB-75 CNS): > 100 µM | TGI (HOP-92 NSCLC): > 100 µM | TGI (DMS 114 small cell lung): > 100 µM | TGI (RXF 393 renal): > 100 µM | TGI (A498 renal): > 100 µM | TGI (COLO 205 colon): > 100 µM | TGI (HOP-62 NSCLC): > 100 µM | TGI (KM12 colon): > 100 µM | TGI (DMS 273 small cell lung): > 100 µM | TGI (HT29 colon): > 100 µM | TGI (SF-268 CNS): > 100 µM | TGI (OVCAR-3 ovarian): > 100 µM | TGI (786-0 renal): > 100 µM | TGI (HCT-15 colon): > 100 µM | TGI (NCI-H23 lung): > 100 µM | TGI (U251 CNS): > 100 µM | TGI (RXF-631 renal): > 100 µM | TGI (M19-MEL melanoma): > 100 µM | TGI (HCT-116 colon): > 100 µM | TGI (UACC-257 melanoma): > 100 µM | TGI (NCI-H460 lung): > 100 µM | TGI (SK-OV-3 ovarian): > 100 µM

CC(=O)OC(OC(C)=O)c1ncccc1C(=O)OC(C)C
TGI (OVCAR-5 ovarian): > 100 µM | TGI (TK-10 renal): > 100 µM | TGI (A549 NSCLC): > 100 µM | TGI (SNB-19 CNS): > 100 µM | TGI (SW-620 colon): > 100 µM | TGI (SF-539 CNS): > 100 µM | TGI (EKVX NSCLC): > 100 µM | TGI (SK-MEL-2 melanoma): > 100 µM | TGI (IGROV1 ovarian): > 100 µM | TGI (SF-295 CNS): > 100 µM | TGI (SN12C renal): > 100 µM | TGI (KM20L2 colon): > 100 µM | TGI (XF 498 CNS): > 100 µM | TGI (ACHN renal): > 100 µM | TGI (MALME-3M melanoma): > 100 µM | TGI (MOLT-4 leukemia): > 100 µM | TGI (CCRF-CEM leukemia): 49.1 µM | TGI (UACC-62 melanoma): > 100 µM | TGI (HOP-18 NSCLC): > 100 µM | TGI (CAKI-1 renal): > 100 µM | TGI (HCC-2998 colon): > 100 µM | TGI (SR leukemia): > 100 µM | TGI (SK-MEL-5 melanoma): > 100 µM | TGI (NCI-H226 lung): > 100 µM | TGI (OVCAR-4 ovarian): > 100 µM | TGI (OVCAR-8 ovarian): > 100 µM | TGI (SK-MEL-28 melanoma): > 100 µM | TGI (SNB-78 CNS): > 100 µM | TGI (UO-31 renal): > 100 µM | TGI (HL-60(TB) leukemia): 28.9 µM | TGI (K-562 leukemia): > 100 µM | TGI (M14 melanoma): > 100 µM | TGI (LOX IMVI melanoma): > 100 µM | TGI (SNB-75 CNS): > 100 µM | TGI (HOP-92 NSCLC): > 100 µM | TGI (DMS 114 small cell lung): > 100 µM | TGI (RXF 393 renal): > 100 µM | TGI (A498 renal): > 100 µM | TGI (COLO 205 colon): > 100 µM | TGI (HOP-62 NSCLC): > 100 µM | TGI (NCI-H522 lung): > 100 µM | TGI (KM12 colon): > 100 µM | TGI (DMS 273 small cell lung): > 100 µM | TGI (DLD-1 colon): > 100 µM | TGI (HT29 colon): > 100 µM | TGI (SF-268 CNS): > 100 µM | TGI (OVCAR-3 ovarian): > 100 µM | TGI (786-0 renal): > 100 µM | TGI (HCT-15 colon): > 100 µM | TGI (NCI-H23 lung): > 100 µM | TGI (U251 CNS): > 100 µM | TGI (M19-MEL melanoma): > 100 µM | TGI (HCT-116 colon): > 100 µM | TGI (LXFL 529 NSCLC): > 100 µM | TGI (UACC-257 melanoma): > 100 µM | TGI (NCI-H460 lung): > 100 µM | TGI (SK-OV-3 ovarian): > 100 µM

From PubChem BioAssay (NCI)
